Several values for one entry are separate records, joined by “and”; a condition that tells them apart may be missing. Equal values may be shown once.
Tests used:
[1] = cited from earlier work
[2] = system: plasma tHcy, fractional excretion of Hcy; assay: Oral Mesna, Hcy clearance in 2 subjects with normal kidney function; format: in vivo, human
Experimental: The effect of oral Mesna on Hcy clearance was also evaluated in 2 subjects with normal kidney function. The subjects fluid loaded by consuming 2 L of water the morning of the study day. An indwelling catheter was inserted into an appropriate arm vein. At the beginning of the study subjects were asked to void urine and 2×5 mL blood samples were drawn for analysis of tHcy and creatinine. Subsequent blood samples were drawn at 0.5, 1.0 and 1.5 hours for determination of baseline tHcy and creatinine. At these times subjects were also asked to void urine for measurement of urinary tHcy, creatinine and urine volume. Subjects were then given a 10 mg/kg oral dose of Mesna. One hour after the dose, subjects were asked to void their urine and 2×5 mL blood samples were drawn for determination of tHcy and creatinine. At 1.5, 2.0, and 2.5 hours after Mesna, blood samples were drawn for tHcy and creatinine analysis. Urine was also collected at these times for determination of urinary Hcy, creatinine and urinary volume. A final blood sample was drawn 4 hours after administration of Mesna. Mesna caused a slow, small (1.5 μM) decrease in plasma tHcy concentration in both subjects (see FIG. 14). Mesna was detectable in plasma however, maximum concentration (mean 88.6 μM) was less than the 5 mg/kg administered intravenously to dialysis patients (FIG. 15). The fractional excretion of Hcy ([CLHcy/CLCreat]*100) was assessed in the presence and absence of Mesna (see FIG. 16). In the absence of Mesna the fractional excretion of Hcy was only 0.1%. When Mesna was administered the fractional Hcy excretion raised 60 fold to 6.0%.

[3] = target: protein bound Hcy (Homo sapiens, UniProt P02768); assay: In vitro thiol exchange assay (free dialyzable Hcy in plasma/serum); settings: for AUC of free Hcy vs time: 300 μM, plasma of healthy subjects, n=6, mean +/-SE
protein bound Hcy, sequence (P02768 25-609): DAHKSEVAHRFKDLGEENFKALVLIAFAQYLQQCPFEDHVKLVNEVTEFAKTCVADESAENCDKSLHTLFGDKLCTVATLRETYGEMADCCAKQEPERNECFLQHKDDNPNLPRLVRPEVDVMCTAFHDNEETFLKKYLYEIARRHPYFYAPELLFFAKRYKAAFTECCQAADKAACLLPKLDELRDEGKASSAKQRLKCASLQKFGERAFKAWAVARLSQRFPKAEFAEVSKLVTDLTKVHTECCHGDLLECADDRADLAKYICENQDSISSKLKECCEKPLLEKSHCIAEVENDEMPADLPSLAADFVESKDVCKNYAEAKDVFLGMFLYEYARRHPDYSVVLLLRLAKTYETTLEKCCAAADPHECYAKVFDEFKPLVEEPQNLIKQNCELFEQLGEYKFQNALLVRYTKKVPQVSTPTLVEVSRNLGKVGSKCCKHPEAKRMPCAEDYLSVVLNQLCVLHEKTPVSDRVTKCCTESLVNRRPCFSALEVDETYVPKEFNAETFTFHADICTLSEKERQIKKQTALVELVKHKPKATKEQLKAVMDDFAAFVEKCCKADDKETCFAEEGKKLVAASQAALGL
Experimental: To determine the efficacy of Mesna in vitro a thiol exchange assay was developed. This assay evaluates the ability of thiol-containing drugs to exchange with protein bound Hcy and other thiols yielding a larger free, dialyzable fraction of Hcy. 60 mL of blood was drawn from 6 healthy subjects and plasma was obtained by centrifugation at 1500×g. D,L Homocysteine was then added to each plasma sample to a final concentration of 30 μM. The samples were allowed to equilibrate at 4° C. for 72 hours to allow covalent, disulfide bonding of Hcy to plasma proteins. To conduct each assay, 380 μL of the aforementioned plasma was pipetted into a 1.7 mL polypropylene snap-cap tube. 20 uL of Mesna (diluted in 4 mM ethylenediaminetetraacetic acid disodium salt (EDTA), pH=7) was then added to the sample to final concentrations ranging from 0 μM (EDTA vehicle) to 10 000 μM. The sample was incubated for 30 minutes at 37° C. 50 μL aliquots were removed at 0, 2, 5, 10, 15 and 30 at which time plasma proteins were precipitated with 25 μL of 15% sulphosalicylic acid. […] Results for each concentration of Mesna are mean +/−SE, n=6.
Numerous compounds that may modulate protein binding and thiol exchange accumulate in the serum of patients with end-stage renal disease (ESRD). To verify that none of these compounds alter Mesna's exchange with protein bound Hcy, a single concentration of Mesna (300 μM) was tested in a thiol exchange assay (described in Example 4) in serum from patients with ESRD or healthy controls.
The in vitro thiol exchange potential of Mesna was compared with another thiol-containing drug, n-acetylcysteine (NAC) by the thiol exchange assay described in Example 4. 300 μM NAC was compared with 150 and 300 μM Mesna in the plasma of healthy subjects.

[4] = system: plasma Hcy; settings: iv Mesna for 5 days, cancer chemotherapy patients, from 12.3 μmol/L; cited from earlier work
[5] = Tolerability of Mesna in ESRD hemodialysis patients; format: in vivo, human
Experimental: To assess baseline total plasma Hcy concentrations, 5 ml blood samples (EDTA) were drawn pre- and post-dialysis for all 7 dialysis sessions during the 14 day study period. On day 5 (corresponding to the third dialysis session) blood samples were also drawn at various times throughout the dialysis treatment (0.5, 1.0, 2.0 and 3.0 hours) to determine baseline kinetic data. Undiluted ultrafiltrate was obtained from 2 patients by stopping the dialysate flow while maintaining the patient on ultrafiltration. Once 200 ml of dialysate had been displaced from the dialyzer, an undiluted ultrafiltrate sample was drawn from a port specially installed for the study. On the treatment day (a mid-week dialysis session corresponding to day 7 of the study), a single 5 mg/kg dose of Mesna was infused directly into the venous return on the dialysis machine over 5 minutes. Blood samples were drawn pre-dialysis, 4 minutes after Mesna administration, 0.5, 1.0, 2.0, 3.0 hours and post-dialysis. Undiluted ultrafiltrate was also collected from 2 of the patients as described above. Pre- and post-dialysis blood samples were also drawn on each of the 3 subsequent dialysis treatments (corresponding to days 9, 12 and 14) to determine the duration of Mesna's action and how long it remains in the blood. All blood samples were immediately placed on ice and centrifuged within 30 minutes at 1500×g for 10 minutes. […]

[6] = target: albumin bound Hcy (Homo sapiens, UniProt P02768); settings: 305 μmol/L Mesna
albumin bound Hcy, sequence (P02768 25-609): as above
Experimental: Plasma was supplemented with reduced homocysteine (30 μmol/L) and allowed to equilibrate with protein and endogenous thiols for 72 hours. Mesna or diluent (control) was then added to the plasma and incubated at 37° C. for 15 minutes. 1 ml of plasma was pipetted into a micropartition device and centrifuged at 1500×g for 10 minutes. Free (dialyzable) Hcy was then determined in the ultrafiltrate.
30 ml of blood (EDTA) was obtained from a healthy subject with normal renal function. The blood was immediately centrifuged at 1500×g and the plasma was separated. D,L Homocysteine was then added to the plasma to a final concentration of 30 μmol/L. The sample was incubated at 4° C. for 72 hours to allow the homocysteine to covalently bind to protein and other thiols. Mesna was added to 1 ml of plasma to a final concentration of 305 μmol/L. An equal volume of diluent was added to 1 ml of plasma as a control. The plasma (1 ml) was then incubated at 37° C. for 15 minutes after which it was pipetted into an Amicon (Amicon Canada, Oakville, Ontario) type YMT micropartition system for separation of free from protein bound solutes. The micropartition system was centrifuged at 1500 X g for 10 minutes and the ultrafiltrate obtained was stored at −20° C. until analysis.
Total plasma Hcy and other low molecular weight thiols were measured by HPLC-FD after pre-column derivitization as described by Jacobsen et al.^20 Briefly, disulfide bonds were reduced with 1.43 M sodium borohydride. Excess reducing agent was consumed by the addition of 1.2 M HCl after which thiols were derivitized with monobromobimane. Protein was precipitated with 1.5 M perchloric acid and the sample pH was raised to ˜3.5 with a solution of 2M citrate and 10 N NaOH.
Thiol amino acids were separated on a Waters Nova-Pak C18 (150×3.9 mm, 5μ) column. The mobile phase consisted of 4% acetonitrile/25 mM ammonium formate buffer, pH=3.8. Since Mesna is also a low molecular weight thiol it can also be measured as a bimane derivative, although it is very late eluting when the above mentioned chromatographic conditions are used. […]

[7] = system: total plasma Hcy and cysteine; assay: In vivo pilot study, 3 ESRD hemodialysis patients, single iv Mesna: intra-dialytic plasma tHcy and cysteine; set-up: species or system human
Description: 3 vitamin supplemented ([…], Landmark Medical Systems Inc. Unionville, Ontario) maintenance hemodialysis patients (2 males, 1 female) were recruited from the dialysis unit at London Health Sciences Centre-University Campus. Inclusion criteria were any vitamin supplemented patients on thrice weekly hemodialysis for at least 90 days who were willing to sign a letter of informed consent. Patients were excluded from the study if they had serum albumin≦30 g/L. The study protocol was approved by the human subject research ethics board at the University of Western Ontario. Patients were dialyzed with Fresenius Optiflux hollow fiber dialyzers (Fresenius AG, Bad Homburg, Germany). […] On day 5 (corresponding to the third dialysis session) blood samples were also drawn at various times throughout the dialysis treatment (0.5, 1.0, 2.0 and 3.0 hours) to determine baseline kinetic data. Undiluted ultrafiltrate was obtained from 2 patients by stopping the dialysate flow while maintaining the patient on ultrafiltration. Once 200 ml of dialysate had been displaced from the dialyzer, an undiluted ultrafiltrate sample was drawn from a port specially installed for the study. On the treatment day (a mid-week dialysis session corresponding to day 7 of the study), a single 5 mg/kg dose of Mesna was infused directly into the venous return on the dialysis machine over 5 minutes. […] Undiluted ultrafiltrate was also collected from 2 of the patients as described above. Pre- and post-dialysis blood samples were also drawn on each of the 3 subsequent dialysis treatments (corresponding to days 9, 12 and 14) to determine the duration of Mesna's action and how long it remains in the blood. […] Plasma and ultrafiltrate were stored at -20° C. until analysis. […] Results are shown as mean +/-SD. Intra-dialytic changes in tHcy and cysteine concentrations were analyzed by a paired students t-test.

[8] = Intra-dialytic Mesna kinetics in 3 ESRD hemodialysis patients; format: in vivo, human
Experimental: To assess baseline total plasma Hcy concentrations, 5 ml blood samples (EDTA) were drawn pre- and post-dialysis for all 7 dialysis sessions during the 14 day study period. On day 5 (corresponding to the third dialysis session) blood samples were also drawn at various times throughout the dialysis treatment (0.5, 1.0, 2.0 and 3.0 hours) to determine baseline kinetic data. Undiluted ultrafiltrate was obtained from 2 patients by stopping the dialysate flow while maintaining the patient on ultrafiltration. Once 200 ml of dialysate had been displaced from the dialyzer, an undiluted ultrafiltrate sample was drawn from a port specially installed for the study. On the treatment day (a mid-week dialysis session corresponding to day 7 of the study), a single 5 mg/kg dose of Mesna was infused directly into the venous return on the dialysis machine over 5 minutes. Blood samples were drawn pre-dialysis, 4 minutes after Mesna administration, 0.5, 1.0, 2.0, 3.0 hours and post-dialysis. Undiluted ultrafiltrate was also collected from 2 of the patients as described above. Pre- and post-dialysis blood samples were also drawn on each of the 3 subsequent dialysis treatments (corresponding to days 9, 12 and 14) to determine the duration of Mesna's action and how long it remains in the blood. All blood samples were immediately placed on ice and centrifuged within 30 minutes at 1500×g for 10 minutes. Plasma and ultrafiltrate were stored at −20° C. until analysis.
Therefore, the inventors modified the chromoatographic conditions such that 4% acetonitrile was run for 7 minutes and then a gradient of 4% to 70% acetonitrile was used from 7 to 20 minutes.

[9] = human, in vivo
Experimental: To evaluate the in vivo effect of Mesna on plasma tHcy, 5 maintenance hemodialysis patients were recruited to participate in a single dose pilot study. Blood samples were drawn at selected intervals during a mid-week dialysis session during which no Mesna was given. One week later, subjects received a single, 5 mg/kg, pre-dialysis, intravenous dose of Mesna and blood samples were drawn throughout the dialysis session. Dialysate samples were also collected from 2 patients. Total Hcy and cysteine were measured in plasma and dialysate by the modified method of Jacobsen et al.^20 Mesna caused a profound, rapid decrease in plasma tHcy and cysteine (see FIG. 11 and 12). […] A pre-dialysis plasma sample was also drawn before the next dialysis session 2 days later. Plasma tHcy was 2.3 μM lower with Mesna than control (P=0.047) indicating a residual effect of Mesna on tHcy concentrations.
Concentrations of Mesna were also measured in plasma (n=5) and dialysate (n=2) (see FIG. 13).

[10] = system: plasma tHcy and cysteine; assay: Single dose pilot study, 5 maintenance hemodialysis patients: plasma and dialysate tHcy and cysteine; format: in vivo, human
Experimental: Blood samples were drawn at selected intervals during a mid-week dialysis session during which no Mesna was given. One week later, subjects received a single, 5 mg/kg, pre-dialysis, intravenous dose of Mesna and blood samples were drawn throughout the dialysis session. Dialysate samples were also collected from 2 patients. […] A pre-dialysis plasma sample was also drawn before the next dialysis session 2 days later.

[11] = isolated perfused rat liver; cited from earlier work
[12] = system: plasma tHcy; settings: oral, 4 weeks of treatment, patients on hemodialysis; cited from earlier work
[13] = single 5 mg/kg pre-dialysis iv dose, n=5

N[C@@H](CS)C(=O)O [cysteine]
pKa of the thiol [1]: 8.15

O=S(=O)(O)CCS.[Na] [Mesna, sodium 2-mercaptoethane sulfonic acid]
rise of fractional Hcy excretion ([2]; 10 mg/kg oral dose vs absence of Mesna): 60 fold
decrease in plasma tHcy concentration ([2]; 10 mg/kg oral dose, 2 subjects with normal kidney function): 1.5 µM
fractional excretion of Hcy ([CLHcy/CLCreat]*100) ([2]; 10 mg/kg oral dose, normal kidney function): 6.0%
effect on fraction of free dialyzable Hcy ([3]; 0 to 10 000 μM Mesna, plasma spiked 30 μM Hcy, n=6): concentration dependent increase
AUC of thiol exchange, ESRD serum vs. healthy controls ([3]; 300 μM Mesna, P>0.05): no significant difference
AUC of free Hcy vs time [3]: 1023+/−86.0
time to maximal thiol exchange after Mesna addition ([3]; further in vitro studies with plasma): ≤ 2 min
plasma Hcy after Mesna [4]: 1.4 µmol/L
tolerability, side effect ([5]; 5 mg/kg iv, two of 3 patients): mild nausea
pKa of the thiol [1]: 9.1
free Hcy as % of the total plasma Hcy ([6]; 15 minute incubation): 27.2% and 27%
Hcy in the free dialyzable form (ultrafiltrate) ([6]; 15 minute incubation at 37° C., plasma spiked with 30 μmol/L Hcy): 8.2 µmol/L
effect on post-dialysis cysteine ([7]; 5 mg/kg iv, 3 patients, p=0.009): significant decrease
effect on post-dialysis tHcy ([7]; 5 mg/kg iv, 3 patients, p=0.035): significant decrease
pre-dialysis plasma Hcy at second cycle after Mesna ([7]; day 12, all patients): returned to baseline
time to decrease of total plasma homocysteine after administration ([7]; intravenous Mesna, human subjects): ≤ 30 min
decrease in pre-dialysis plasma tHcy, day 9 vs day 7 ([7]; patient 1): 3.7 µmol/L
decrease in pre-dialysis plasma tHcy, day 9 vs day 7 ([7]; patient 2): 1.1 µmol/L
decrease in pre-dialysis plasma tHcy, day 9 vs day 7 ([7]; patient 3): 3.1 µmol/L
post-dialysis tHcy concentration ([7]; single iv 5 mg/kg Mesna, 3 ESRD patients): 10.1 µmol/L
additional decrease of total plasma Hcy compared to dialysis alone ([7]; single iv 5 mg/kg dose during dialysis): 29%
UF Hcy following Mesna treatment ([7]; undiluted ultrafiltrate, 2 patients): No increase
concentration at 14 study day ([8]; human, plasma, intravenous, 5 mg/kg, end of the study period (day 14)): 13.4 µM
concentration at 4 min ([8]; human, plasma, shortly after administration, 5 mg/kg iv, 3 patients): 296 µM
plasma Mesna concentration ([8]; post-dialysis, 5 mg/kg iv, 3 patients): 89.7 ± 32.5 µmol/L
plasma Mesna concentration ([8]; second patient, ~3.5 hours after administration, at onset of nausea): ~60 µmol/L
elimination during dialysis [9]: first order elimination
dialysate Hcy with Mesna compared to control ([10]; n=2): slight increase
pre-dialysis plasma tHcy lower with Mesna than control ([10]; next dialysis session 2 days later, P=0.047): 2.3 µM
post-dialysis plasma cysteine [10, 13]: 165.1 ± 7.4 µM
post-dialysis plasma tHcy [10, 13]: 11.6 ± 1.7 µM

O=S(=O)([O-])CCSSCCS(=O)(=O)[O-].[Na+].[Na+] [diMesna, Mesna disulfide]
metabolic reduction [11]: reduce diMesna to Mesna

N[C@@H](CCS)C(=O)O [homocysteine]
pKa of the thiol [1]: 8.7

CN(C)CCOC(c1ccccc1)c1ccccc1.Cn1c(=O)c2[nH]c(Cl)nc2n(C)c1=O [dimenhydrinate]
time to reversal of nausea symptoms ([5]; administration of dimenhydrinate to patients with Mesna-associated nausea): ≤ 1 min

CC(=O)N[C@@H](CS)C(=O)O [NAC, n-acetylcysteine]
AUC of free Hcy vs time [3]: 642+/−49.7
effect on pre-dialysis plasma tHcy [12]: small, non-significant decrease

Source: US20070249729A1, “Method of Treating Elevated Plasma Homocysteine Levels in Esrd Patients” (priority 2003, published 2007)
